In patent US20250109387A1, “SMOOTH MUSCLE CELLS SEEDED IN MICROCHANNELS WITHIN HYDROGELS TO FORM FUNCTIONAL MEDIAL LAYERS IN ENGINEERED MICROVASCULATURE” (VANDERBILT UNIVERSITY, priority 2023, published 2025):

Tested on: HASMCs
Experiment: Calcium imaging of HASMCs carrying GCaMP6f after ET-1 exposure
Format: cell-based, human
Conditions: 500 nM endothelin-1; HASMCs cultured in flasks (2D) and in channels (3D); fluorescence microscopy
Procedure: Calcium imaging: HASMCs were infected with lentivirus carrying GCaMP6f and cultured in flasks (2D) and in channels (3D). Cells were then exposed to 500 nM endothelin-1 (ET-1, vasoconstrictor), and imaged via fluorescence microscopy (FIGS. 16A-16F).

endothelin-1 [ET-1] was tested, and the “intracellular Ca^2+ release (GCaMP6f fluorescence over time)” value was “substantial intracellular Ca^2+ release”.
